Test: Urinary excretion study in rats after oral NS, SF or CNS (LC–MS/MS)
Assay type: in vivo
Settings: for concentration at 2 h / concentration at 4 h / concentration at 8 h / concentration at 12 h / concentration at 24 h / concentration at 36 h / concentration at 48 h / concentration at 72 h / concentration at 96 h / concentration at 120 h / concentration at 6 h: male, Sprague Dawley, rat, urine, oral; for Accumulative excretion amount / Accumulative excretion percentage / Excretion amount: rat urine
Method: The animal room was set at constant temperature of 20 ± 2 °C with humidity of 50 ± 20% and 12/12 h light/dark cycle.
Eighteen male rats were fasted for 12 h before starting the experiment. The rats were divided into three groups at random (n = 6) and received NS (60 mg/kg), SF (50 mg/kg), and NS (60 mg/kg) + SF (50 mg/kg), respectively, by oral gavage. The rats were placed in separate metabolic cages. The urine samples were collected at 0–2, 2–4, 4–6, 6–8, 8–12, 12–24, 24–36, 36–48, 48–72, 72–96, and 96–120 h. The feces samples were collected at 0–4, 4–8, 8–12, 12–24, 24–36, 36–48, 48–72, 72–96, and 96–120 h. The urine volume was recorded and the dry feces were measured for each collection period. Samples were stored at −80 °C until analysis.
An aliquot of 200 μL urine sample was mixed with 10 μL of IS and evaporated to dryness with a ZLS-2 vacuum centrifugal concentrator (Herexi Co., Ltd., Changsha, Hunan, China). The residue was reconstituted in 100 μL of 50% methanol vortexed for 2 min and centrifuged at 12,000 rpm for 15 min. Finally, a 1 μL aliquot was injected for LC–MS analysis.
Ultra fast liquid chromatography (UFLC) analysis was performed using a Shimadzu UFLC system (DGU-20A3R Degasser; LC-20AD pump; SIL-20AXR Autosampler; CTO-20AC Column Oven) (Nakagyo-Ku, Koyoto, Japan). […] Because of the different endogenous substances in the urine and feces samples, different elution gradients were used to alleviate the matrix effects for the analytes.
The mass spectrometric detection was performed on an ABSciex 4500 Qtrap mass spectrometer (ABSciex, Foster City, CA, USA) equipped with a negative electrospray ionization (ESI) interface using multiple reaction monitoring (MRM). The MS parameters were optimized under the selected ion monitoring conditions as follows: curtain gas, 35 psi; ionspray voltage, 4500 V; turbo gas temperature, 450 °C; GS1, 45 psi; GS2, 45 psi. All data were acquired and analyzed by Analyst software (Versions 1.6.2) from ABSciex.
The accumulative excretion percentage was calculated for each analyte as follows. Excretion at time (t) = [concentration of the analyte (ng/mL) at t] × total urine (or feces) volume (mL) at t. The cumulative excretion up to time t (mg) was expressed as a percent (%) cumulative excretion by dividing by the total amount of the analyte ingested (mg): % Cumulative Excretion = 100 × (Σt excretiont) total ingested.

## CC(C)=CCC[C@](C)(O[C@@H]1O[C@H](CO[C@@H]2O[C@H](CO)[C@@H](O)[C@H](O)[C@H]2O)[C@@H](O)[C@H](O)[C@H]1O)[C@H]1CC[C@]2(C)[C@@H]1[C@H](O)C[C@@H]1[C@@]3(C)CC[C@H](O[C@@H]4O[C@H](CO)[C@@H](O)[C@H](O)[C@H]4O[C@@H]4O[C@H](CO)[C@@H](O)[C@H](O)[C@H]4O)C(C)(C)[C@@H]3CC[C@]12C [ginsenoside Rb1]
60 mg/kg, oral NS 60 mg/kg, 2 h
  concentration at 2 h: 115 ± 284 ng/mL
60 mg/kg, oral NS 60 mg/kg, 4 h
  concentration at 4 h: 245 ± 450 ng/mL
60 mg/kg, oral NS 60 mg/kg, 8 h
  concentration at 8 h: 140 ± 196 ng/mL
60 mg/kg, oral NS 60 mg/kg, 12 h
  concentration at 12 h: 214 ± 344 ng/mL
60 mg/kg, oral NS 60 mg/kg, 24 h
  concentration at 24 h: 240 ± 553 ng/mL
60 mg/kg, oral NS 60 mg/kg, 36 h
  concentration at 36 h: 61 ± 54 ng/mL
60 mg/kg, oral NS 60 mg/kg, 48 h
  concentration at 48 h: 142 ± 344 ng/mL
60 mg/kg, oral NS 60 mg/kg, 72 h
  concentration at 72 h: 84 ± 195 ng/mL
60 mg/kg, oral NS 60 mg/kg, 96 h
  concentration at 96 h: 45 ± 104 ng/mL
60 mg/kg, oral NS 60 mg/kg, 120 h
  concentration at 120 h: 25 ± 62 ng/mL
Oral CNS 110 mg/kg, 2 h
  concentration at 2 h: 54 ± 73 ng/mL
  Accumulative excretion amount: 0.075 ± 0.093 µg
  Accumulative excretion percentage: 0.002±0.002%
  Excretion amount: 0.075 ± 0.093 µg
Oral CNS 110 mg/kg, 4 h
  concentration at 4 h: 27 ± 41 ng/mL
  Accumulative excretion amount: 0.106 ± 0.086 µg
  Accumulative excretion percentage: 0.003±0.002%
  Excretion amount: 0.044 ± 0.050 µg
Oral CNS 110 mg/kg, 6 h
  concentration at 6 h: 111 ± 121 ng/mL
  Accumulative excretion amount: 0.218 ± 0.166 µg
  Accumulative excretion percentage: 0.006±0.004%
  Excretion amount: 0.158 ± 0.142 µg
Oral CNS 110 mg/kg, 8 h
  concentration at 8 h: 105 ± 100 ng/mL
  Accumulative excretion amount: 0.339 ± 0.213 µg
  Accumulative excretion percentage: 0.009±0.006%
  Excretion amount: 0.212 ± 0.169 µg
Oral CNS 110 mg/kg, 12 h
  concentration at 12 h: 120 ± 134 ng/mL
  Accumulative excretion amount: 0.472 ± 0.310 µg
  Accumulative excretion percentage: 0.013±0.008%
  Excretion amount: 0.154 ± 0.128 µg
Oral CNS 110 mg/kg, 24 h
  concentration at 24 h: 72 ± 50 ng/mL
  Accumulative excretion amount: 0.859 ± 0.527 µg
  Accumulative excretion percentage: 0.023±0.014%
  Excretion amount: 0.388 ± 0.391 µg
Oral CNS 110 mg/kg, 36 h
  concentration at 36 h: 138 ± 144 ng/mL
  Accumulative excretion amount: 1.056 ± 0.587 µg
  Accumulative excretion percentage: 0.028±0.016%
  Excretion amount: 0.197 ± 0.129 µg
Oral CNS 110 mg/kg, 48 h
  concentration at 48 h: 51 ± 60 ng/mL
  Accumulative excretion amount: 1.303 ± 0.684 µg
  Accumulative excretion percentage: 0.035±0.018%
  Excretion amount: 0.247 ± 0.216 µg
Oral CNS 110 mg/kg, 72 h
  concentration at 72 h: 33 ± 28 ng/mL
  Accumulative excretion amount: 1.373 ± 0.705 µg
  Accumulative excretion percentage: 0.037±0.019%
  Excretion amount: 0.070 ± 0.060 µg
Oral CNS 110 mg/kg, 96 h
  concentration at 96 h: 19 ± 14 ng/mL
  Accumulative excretion amount: 1.414 ± 0.715 µg
  Accumulative excretion percentage: 0.038±0.019%
  Excretion amount: 0.040 ± 0.031 µg
Oral CNS 110 mg/kg, 120 h
  concentration at 120 h: 14 ± 12 ng/mL
  Accumulative excretion amount: 1.436 ± 0.726 µg
  Accumulative excretion percentage: 0.038±0.019%
  Excretion amount: 0.022 ± 0.025 µg
Oral NS 60 mg/kg, 6 h
  concentration at 6 h: 140 ± 244 ng/mL
  Accumulative excretion amount: 0.798 ± 1.077 µg
  Accumulative excretion percentage: 0.019±0.025%
  Excretion amount: 0.262 ± 0.207 µg
Oral NS 60 mg/kg, 2 h
  Accumulative excretion amount: 0.075 ± 0.063 µg
  Accumulative excretion percentage: 0.002±0.001%
  Excretion amount: 0.075 ± 0.063 µg
Oral NS 60 mg/kg, 4 h
  Accumulative excretion amount: 0.574 ± 1.167 µg
  Accumulative excretion percentage: 0.013±0.027%
  Excretion amount: 0.872 ± 1.518 µg
Oral NS 60 mg/kg, 8 h
  Accumulative excretion amount: 0.863 ± 1.044 µg
  Accumulative excretion percentage: 0.021±0.025%
  Excretion amount: 0.152 ± 0.084 µg
Oral NS 60 mg/kg, 12 h
  Accumulative excretion amount: 1.139 ± 1.140 µg
  Accumulative excretion percentage: 0.027±0.027%
  Excretion amount: 0.276 ± 0.142 µg
Oral NS 60 mg/kg, 24 h
  Accumulative excretion amount: 1.881 ± 1.352 µg
  Accumulative excretion percentage: 0.044±0.032%
  Excretion amount: 0.742 ± 0.289 µg
Oral NS 60 mg/kg, 36 h
  Accumulative excretion amount: 2.275 ± 1.435 µg
  Accumulative excretion percentage: 0.053±0.033%
  Excretion amount: 0.394 ± 0.221 µg
Oral NS 60 mg/kg, 48 h
  Accumulative excretion amount: 2.476 ± 1.415 µg
  Accumulative excretion percentage: 0.058±0.033%
  Excretion amount: 0.201 ± 0.117 µg
Oral NS 60 mg/kg, 72 h
  Accumulative excretion amount: 2.506 ± 1.429 µg
  Accumulative excretion percentage: 0.058±0.033%
  Excretion amount: 0.030 ± 0.020 µg
Oral NS 60 mg/kg, 96 h
  Accumulative excretion amount: 2.521 ± 1.438 µg
  Accumulative excretion percentage: 0.060±0.034%
  Excretion amount: 0.016 ± 0.011 µg
Oral NS 60 mg/kg, 120 h
  Accumulative excretion amount: 2.528 ± 1.439 µg
  Accumulative excretion percentage: 0.060±0.034%
  Excretion amount: 0.006 ± 0.003 µg
